Measured values from article PMC6260619, “Selective Cytotoxicity of Goniothalamin against Hepatoblastoma HepG2 Cells” (Molecules, 2011).
Values joined by “and” are separate entries in the source; they are usually repeats but may differ in a detail not shown here. Equal entries are not always repeated. Where two headings read alike, the source gives them in different places.

Tests used:
Chang cells [1] = assay: LDH leakage assay, Chang; type: cell-based, human; conditions: for IC50: read-out: IC50 from LDH
Protocol: Measurement of LDH activity is another indicator of cell viability through evaluation of the cell membrane permeability. The enzyme activity is measured externally, as it leaks from dead cells which lose their membrane integrity. LDH leakage detection is based on the loss of NADH due to its oxidation to NAD^+, resulting in the conversion of pyruvate to lactate. Untreated cells should retain LDH in their cells and have minimal loss over the time of the assay. Triton X-100-treated cells that give the maximum loss of LDH were used as the positive control in this assay.
To determine the effect of goniothalamin on membrane permeability in HepG2 and Chang cell lines, a lactate dehydrogenase (LDH) release assay was used. The cells were seeded in 96-well culture plates at a density of 2 × 10^4 cells/well in 100 μL volume and allowed to grow for 18 hours before treatment. After treatment, the plates were incubated for 24, 48 and 72 hours, respectively. Then, the supernatant (40 μL) was transferred to a new 96 well to determine LDH release and 6% triton X-100 (40 μL) was added to the original plate for determination of total LDH. An aliquot of 0.1 M potassium phosphate buffer (100 μL, pH 7.5) containing 4.6 mM pyruvic acid was mixed to the supernatant using repeated pipetting. Then, 0.1 M potassium phosphate buffer (100 μL, pH 7.5) containing 0.4 mg/mL reduced β-NADH was added to the wells. The kinetic changes were read for 1 min using ELISA microplate reader in absorbance at wavelength 340 nm. This procedure was repeated with 40 μL of the total cell lysate to determine total LDH U/well. A change of 0.001 absorbance units/min is equivalent to 1 U/L of LDH activity. The percentage of LDH release was determined by dividing the LDH released into the media by the total LDH following cell lysis in the same well.

HepG2 cells [2] = assay: Trypan blue dye exclusion viable cell count, HepG2; type: cell-based, human
Protocol: (§1) As supported by MTT and LDH results, goniothalamin inhibited cell proliferation towards HepG2 in a time- and dose-dependent manner as shown in the BrdU incorporation ELISA method. The effects of goniothalamin on HepG2 and Chang cell growth were also analyzed by viable cell counts using trypan blue dye exclusion assay for 24, 48 and 72 hours after treatment with different doses of goniothalamin. […] The ratio between viable cell numbers in goniothalamin-treated cells and control cells was reported as the Viablity Index (VI, Figure 5A and Figure 5B).
(§2) A half mL aliquot of cell suspension (obtained from treated and non-treated HepG2 and Chang cells), was mixed with 0.5 mL of 0.4% trypan blue dye and left for 5 min at room temperature). The cells were counted using the hemacytometer and the percentage of dead cells was determined.

HepG2 cells [3] = assay: MTT cytotoxicity assay, HepG2; type: cell-based, human; conditions: for IC50: read-out: IC50 from MTT
Protocol: HepG2 and Chang cells were plated at 1 × 10^4 cells/well by adding 200 μL of a 5 × 10^4 cells/mL suspension to each well of a 96-well tissue culture plate. The plate was incubated for a sufficient time to assure attachment and 40% to 60% confluency. […] The last row was left as an untreated control. The plates were incubated at 37 °C, 5% CO2, for 24, 48 and 72 hours, respectively. After incubation with compounds, the media was aspirated off and replaced with fresh media. Then, MTT solution (20 μL) for a total volume of 200 μL was added in every well and incubated for 4 to 6 hours at 37 °C with 5% CO2. After that, MTT-containing medium was removed gently and replaced with DMSO (200 μL per well) to mix the formazan crystals until dissolved. The plates were read on microtiter plate reader at 570 nm. For each compound tested, the IC50 (concentration of drug needed to inhibit cell growth by 50%) is generated from the dose-response curves for each cell line.

Chang cells [4] = assay: Trypan blue dye exclusion viable cell count, Chang; type: cell-based
Protocol: as §1, §2

HepG2 cells [5] = assay: Cell cycle PI analysis by flow cytometry, HepG2; type: cell-based, human
Protocol: The ability of a substance to affect specific phases of the cell cycle may provide clues as to its mechanism(s) of action. To determine the effects of goniothalamin on the cell cycle, HepG2 cells were treated with IC50 levels of goniothalamin (determined from the MTT assay) for 24, 48 and 72 hours, respectively. The cells were stained with PI and the DNA contents analyzed by flow cytometry.
The treated cells were trypsinized and washed with PBS. After centrifugation, the supernatant was removed. Then, 1 × 10^6 cells were harvested and fixed in ice-cold ethanol (70%). The fixed cells were centrifuged at high speed (180 × g) for 10 minutes to adequately pellet down the cells that were suspended in the ethanol. The pellet was washed by the ice-cold PBS and then centrifuged again at 180 × g for 10 minutes. The final pellet was resuspended with 1 mL of RNase and incubated at 37 °C for 30 minutes. At the end of incubation, DNA binding dye PI (1 mg/mL) was added to give a final concentration of 50 µg/mL. The mixture was incubated at room temperature for 10 min in the dark. Data acquisition and analysis were performed in by flow cytometry FACS Calibur flow cytometer (Becton Dickinson, Franklin Lakes, NJ, USA) using CellQuest 3.3 software.

[6] = HepG2, 24h, at IC50 (goniothalamin 9.2 µM; doxorubicin 2.2 µM)
[7] = HepG2, 48h, at IC50 (goniothalamin 8.3 µM; doxorubicin 4.3 µM)
[8] = HepG2, 72h, at IC50 (goniothalamin 4.6 µM; doxorubicin […])

O=C1C=CC[C@H](/C=C/c2ccccc2)O1 [Goniothalamin, 5-hydroxy-7-phenylhepta-2,6-dienoic acid lactone]
increase in LDH leakage (Chang cells [1]; Chang, 4.7 µM, 72 hours): 19%
loss of viability (LDH leakage) (Chang cells [1]; Chang, 37.5 µM): ≤ 52%
toxicity (LDH leakage) (Chang cells [1]; Chang, 2.3, 4.7 or 9.4 µM, on completion of incubation): no significant toxicity
IC50 (Chang cells [1]; Chang, 72 hours): 32.5 µM
IC50 (Chang cells [1]; Homo sapiens, 24 h, Chang, 24 hours): 69.6 µM
IC50 (Chang cells [1]; Homo sapiens, 48 h, Chang, 48 hours): 55.1 µM
IC50 (Chang cells [1]; Homo sapiens, 72 h, Chang, 72 hours): 32.5 µM
viability (cell count, trypan blue) (HepG2 cells [2]; HepG2, 2.3 µM): significantly inhibited
Viability Index (HepG2 cells [2]; HepG2, at IC50, 72 hours): 52 ± 1.73%
inhibition at 4.6 µM (HepG2 cells [2]; Homo sapiens, HepG2, 4.6 µM, 72 hours, read-out: inhibition of cell growth (trypan blue)): 52%
inhibition at 8.3 µM (HepG2 cells [2]; Homo sapiens, HepG2, 8.3 µM, 48 hours, read-out: inhibition of cell growth (trypan blue)): 64%
inhibition at 9.2 µM (HepG2 cells [2]; Homo sapiens, HepG2, 9.2 µM, 24 hours, read-out: inhibition of cell growth (trypan blue)): 79%
IC50 (HepG2 cells [3]; HepG2, 72 hours): 4.6 µM and 4.63 µM
IC50 (HepG2 cells [3]; Homo sapiens, HepG2, 24 h): 9.2 µM
IC50 (HepG2 cells [3]; Homo sapiens, HepG2, 48 h): 8.3 µM
selectivity index (SI) (HepG2 cells [3]; IC50 for normal cell line (Chang)/IC50 for cancerous cell line (HepG2), MTT, 72 hours): 7.6
IC50-GTN / IC50-Doxo (HepG2 cells [3]; MTT, 72 hours, value fits HepG2 IC50s): 4.4
Viability Index (Chang cells [4]; at IC50, 72 hours): 62 ± 4.36%
cytotoxicity (cell count, trypan blue) (Chang cells [4]; doses comparable to 2.3 µM): no obvious cytotoxicity
G0/G1 (HepG2 cells [5]; [6]): 68.92 ± 1.27%
G2+M (HepG2 cells [5]; [6]): 5.94 ± 0.22%
S (HepG2 cells [5]; [6]): 7.68 ± 0.12%
SubG0/G1 (HepG2 cells [5]; [6]): 17.44 ± 1.67%
G0/G1 (HepG2 cells [5]; [7]): 39.71 ± 3.50%
G2+M (HepG2 cells [5]; [7]): 5.67 ± 4.13%
S (HepG2 cells [5]; [7]): 8.03 ± 0.29%
SubG0/G1 (HepG2 cells [5]; [7]): 46.59 ± 2.79%
G0/G1 (HepG2 cells [5]; [8]): 31.79 ± 5.82%
G2+M (HepG2 cells [5]; [8]): 2.31 ± 4.19%
S (HepG2 cells [5]; [8]): 7.07 ± 0.18%
SubG0/G1 (HepG2 cells [5]; [8]): 58.83 ± 2.09%
SubG0/G1 (HepG2 cells [5]; HepG2, 72h, at IC50 (goniothalamin 4.6 µM; doxorubicin […]), listed as goniothalamin): 59%
